Results: article PMC4264192, “Synthesis and Biological Evaluation of 2-Thioxopyrimidin-4(1H)-one Derivatives as Potential Non-Nucleoside HIV-1 Reverse Transcriptase Inhibitors” (International Journal of Molecular Sciences, 2014)
pEC50, pIC50: −log10 of the molar value. Like-named read-outs stand apart in the source and are kept apart here. Each block holds one molecule with its values, some of them ahead of it.

Tests used:
[1] = test system: HIV-1; assay: Inhibition of HIV-1 replication in MT-4 cells (HIV-1 antigen ELISA or MTT); format: cell-based, human immunodeficiency virus type 1; details: for pIC50: Human immunodeficiency virus 1, MT4, 144 h, read-out: IC50, 50% inhibitory concentration (anti-HIV-1 activity); for Selectivity index (SI), CC50/IC50 / activity against HIV-1 replication (in words): MT-4 cells; for Selectivity index (SI), CC50/IC50: ratio CC50/IC50; for activity against HIV-1 replication (in words): less than 30% reduction of HIV expression considered without biological activity; for pEC50: Human immunodeficiency virus 1, MT4, read-out: EC50 against wild-type HIV-1
Excerpt: Compounds mediating less than 30% reduction of HIV expression were considered without biological activity.

[2] = Cytotoxic effect in uninfected MT-4 cultures; format: cell-based; details: human, uninfected MT-4 cells; read-out: CC50, 50% cytotoxic concentration
[3] = HIV-1 in MT-4 cells, six days, 0.005 MOI

Compound: Cc1cn([C@H]2C[C@H](N=[N+]=[N-])[C@@H](CO)O2)c(=O)[nH]c1=O [AZT, azidothymidine, reference compound]
pIC50 [1, 3]: 7.40
Selectivity index (SI), CC50/IC50 [1]: 1,300
CC50 at 6 days [2]: 52 µM

Compound: C=CCc1c(Cc2ccccc2)nc(SC)[nH]c1=O [Compound 2a, 5-Allyl 6-(benzyl)-2-(methylthio)pyrimidin-4(3H)-one]
pIC50 [1, 3]: 4.57
Selectivity index (SI), CC50/IC50 [1]: >3
CC50 at 6 days [2]: > 100 µM
melting point: 214 to 216 °C

melting point: 164 to 166 °C
Compound: C=CCc1c(Cc2ccccc2)nc(SCCO)[nH]c1=O [Compound 2b, 2-(2-Hydroxyethylthio)-5-allyl-6-benzylpyrimidin-4(3H)-one]

Compound: C=CCc1c(Cc2ccccc2)nc(SCCCBr)[nH]c1=O [Compound 2c, 2-(3-Bromopropylthio)-5-allyl-6-benzylpyrimidin-4(3H)-one]
activity against HIV-1 replication (in words) [1]: inactive
melting point: 138 to 140 °C

Compound: C=CCc1c(Cc2ccccc2)nc(SCCCCCC)[nH]c1=O [Compound 2d, 5-Allyl-6-benzyl-2-(hexylthio)pyrimidin-4(3H)-one]
pIC50 [1]: 5.15
CC50 at 6 days [2]: 35 µM
melting point: 153 to 155 °C

Compound: C=CCSc1nc(Cc2ccccc2)c(CC=C)c(=O)[nH]1 [Compound 2e, 5-Allyl 6-benzyl-2-(allylthio)pyrimidin-4(3H)-one]
pIC50 [1]: 5.60
pEC50 [1]: 5.60
CC50 at 6 days [2]: 25 µM
melting point: 114 to 116 °C

melting point: 188 to 190 °C
Compound: C=CCc1c(Cc2ccccc2)nc(SCCOCOC)[nH]c1=O [Compound 2f, 5-Allyl-6-benzyl-2-(2-(methoxymethoxy)ethylthio)pyrimidin-4(3H)-one]

melting point: 192 to 194 °C
Compound: C=CCc1c(Cc2ccccc2)nc(SCCOCOCCBr)[nH]c1=O [Compound 2g, 5-Allyl-6-benzyl-2-(2-((2-bromoethoxy)methoxy)ethylthio)pyrimidin-4(3H)-one]

Compound: C=CCc1c(Cc2ccccc2)nc(SCC(C)C)[nH]c1=O [Compound 2h, 5-Allyl-6-benzyl-2-(isobutylthio)pyrimidin-4(3H)-one]
pIC50 [1, 3]: 6.00
Selectivity index (SI), CC50/IC50 [1]: >100
CC50 at 6 days [2]: > 100 µM
melting point: 134 to 136 °C

melting point: 141 to 143 °C
Compound: C=CCc1c(Cc2ccccc2)nc(SCC(CC)CC)[nH]c1=O [Compound 2i, 5-Allyl-6-benzyl-2-(2-ethylbutylthio)pyrimidin-4(3H)-one]

Compound: C=CCc1c(Cc2ccccc2)nc(SC2CCCC2)[nH]c1=O [Compound 2j, 5-Allyl 6-benzyl-2-(cyclopentylthio)pyrimidin-4(3H)-one]
pIC50 [1, 3]: 5.59
pEC50 [1]: 5.59
CC50 at 6 days [2]: > 100 µM

Compound: C=CCc1c(Cc2ccccc2)nc(SC2CCOC2=O)[nH]c1=O (stereo not shown) [Compound 2k, 5-Allyl-6-benzyl-2-(tetrahydro-2-oxofuran-3-ylthio)pyrimidin-4(3H)-one]
activity against HIV-1 replication (in words) [1]: inactive
melting point: 153 to 155 °C

Compound: C=CCc1c(Cc2ccccc2)nc(SCC(=O)OC)[nH]c1=O [Compound 3a, 5-Allyl-6-benzyl-2-(methylacetatethio)pyrimidin-4(3H)-one]
pIC50 [1, 3]: 4.46
Selectivity index (SI), CC50/IC50 [1]: >2
CC50 at 6 days [2]: > 100 µM
melting point: 117 to 119 °C

Compound: C=CCc1c(Cc2ccccc2)nc(SCC(=O)OCC)[nH]c1=O [Compound 3b, 5-Allyl-6-benzyl-2-(ethylacetatethio)pyrimidin-4(3H)-one]
activity against HIV-1 replication (in words) [1]: inactive
melting point: 118 to 120 °C

Compound: C=CCc1c(Cc2ccccc2)nc(SCC(=O)NC)[nH]c1=O [Compound 4, 2-(5-Allyl-4-benzyl-1,6-dihydro-6-oxopyrimidin-2-ylthio)-N-methylacetamide]
activity against HIV-1 replication (in words) [1]: inactive

melting point: 138 to 140 °C
Compound: C=CCc1c(Cc2ccccc2)nc(SC2CCCCC2)[nH]c1=O [Compound 6, 5-Allyl 6-benzyl-2-(cyclohexylthio)pyrimidin-4(3H)-one]

melting point: 190 to 192 °C
Compound: O=c1[nH]c([S+]([O-])C2CCCCC2)nc(Cc2ccccc2)c1CC1CO1 (stereo not shown) [Compound 7, 6-Benzyl-2-(cyclohexylsulfinyl)-5-((oxiran-2-yl)methyl)pyrimidin-4(3H)-one]

Compound: C=CCc1c(Cc2ccccc2)nc(SC2CCCCC2)[nH]c1=S [Compound 8, 5-Allyl-6-benzyl-2-(cyclohexylthio)pyrimidine-4(3H)-thione]
pIC50 [1, 3]: 5.41
Selectivity index (SI), CC50/IC50 [1]: >25
CC50 at 6 days [2]: > 100 µM
melting point: 143 to 145 °C

Compound: C=CCc1c(Cc2ccccc2)nc(SCC(OCC)OCC)[nH]c1=O [Compound 9, 5-Allyl 6-benzyl-2-(2,2-diethoxyethylthio)pyrimidin-4(3H)-one]
activity against HIV-1 replication (in words) [1]: inactive
melting point: 156 to 158 °C

melting point: 162 to 164 °C
Compound: C=CCc1c(Cc2ccccc2)n2c(nc1=O)SCC2OCC (stereo not shown) [Compound 10, 6-Allyl-5-benzyl-3-ethoxy-2,3-dihydrothiazolo[3,2-a]pyrimidin-7-one]

Compound: C=CCc1c(Cc2ccccc2)nc(SCSC)[nH]c1=O [Compound 11a, 2-((Methylthio)methylthio)-5-allyl-6-benzylpyrimidin-4(3H)-one]
pIC50 [1, 3]: 5.50
Selectivity index (SI), CC50/IC50 [1]: >31
CC50 at 6 days [2]: > 100 µM
melting point: 218 to 220 °C

melting point: 142 to 144 °C
Compound: C=CCc1c(Cc2ccccc2)nc(SCOCC)[nH]c1=O [Compound 11b, 5-Allyl-6-benzyl-2-(ethoxymethylthio)pyrimidin-4(3H)-one]

Compound: C=CCc1c(Cc2ccccc2)nc(SCCCO)[nH]c1=O [Compound 11c, 2-(3-Hydroxypropylthio)-5-allyl-6-benzylpyrimidin-4(3H)-one]
pIC50 [1, 3]: 6.49
pEC50 [1]: 6.49
Selectivity index (SI), CC50/IC50 [1]: >312
CC50 at 6 days [2]: > 100 µM
melting point: 123 to 125 °C

Compound: CCOCn1c(Cc2ccccc2)c(C(C)C)c(=O)[nH]c1=O [MKC-442, 6-benzyl-1-(ethoxymethyl)-5-isopropylpyrimidine-2,4-dione, reference compound]
pIC50 [1, 3]: 8.30
Selectivity index (SI), CC50/IC50 [1]: 28,000
CC50 at 6 days [2]: 141 µM
